One data set concerns the target Bcl-xL. Set-up: method as in library vendor description. Conditions: recombinant; ref library vendor description; cited from earlier work.
The target in the next data set is Bcl-2. The arrangement: method as in library vendor description. To be noted: ref library vendor description; cited from earlier work.
Another data set has as its target Mcl-1. Set-up: method as in library vendor description. To be noted: recombinant; ref library vendor description; cited from earlier work.
The subject of data set [1] is Toxoplasma gondii RH-2F tachyzoites. Briefly: microbe, parasite or virus in culture. Conditions: 72 h, read-out: Parasite inhibition (%) mean, preliminary screen, mean.
In the next data set the test system is SIRT1. The arrangement: method as in library vendor description. To be noted: ref library vendor description; cited from earlier work.
Data set [2] deals with human foreskin fibroblasts (HFFs). Conditions: human, 72 h.
The next data set deals with Flt1. Set-up: method as in library vendor description. To be noted: ref library vendor description; cited from earlier work.
A further data set relates to Flt4. The arrangement: method as in library vendor description. To be noted: ref library vendor description; cited from earlier work.
A further data set has as its system c-Kit. The arrangement: method as in library vendor description. Conditions: ref library vendor description; cited from earlier work.
The test system of the next data set is Ret. Set-up: method as in library vendor description. To be noted: ref library vendor description; cited from earlier work.
For a further data set, the system named is AXL. The arrangement: method as in library vendor description. To be noted: ref library vendor description; cited from earlier work.
The nature of the next data set: in vitro. To be noted: human.
Another data set deals with DHFR. Conditions: read-out: Ki DHFR; ref library vendor description; cited from earlier work.
A further data set deals with c-Met. Set-up: method as in library vendor description. Conditions: ref library vendor description; cited from earlier work.
A further data set has as its system G551D-CFTR. Set-up: method as in library vendor description. Conditions: potentiator; ref library vendor description; cited from earlier work.
For another data set, the system named is F508del-CFTR. Set-up: method as in library vendor description. To be noted: potentiator; ref library vendor description; cited from earlier work.
A further data set deals with FKBP12. The arrangement: method as in library vendor description. To be noted: ref library vendor description; read-out: IC50 mTOR inhibitor of FKBP12; cited from earlier work.
Data set [3] relates to Toxoplasma gondii RH-2F tachyzoites. To be noted: preliminary screen, mean.
The test system of a further data set is wild type p110α. Set-up: method as in library vendor description. To be noted: ref library vendor description; cited from earlier work.
A further data set concerns the target δ-opioid receptor. Set-up: method as in library vendor description. Conditions: agonist; ref library vendor description; cited from earlier work.
Another data set relates to human cathepsin K. The arrangement: method as in library vendor description. To be noted: ref library vendor description; cited from earlier work.
The next data set relates to rabbit cathepsin K. Set-up: method as in library vendor description. Conditions: ref library vendor description; cited from earlier work.
Data set [4] has as its target secretory phospholipase A2 (sPLA). Set-up: method as in library vendor description. To be noted: ref library vendor description; cited from earlier work.
Another data set has as its system CYP17. Set-up: method as in library vendor description. To be noted: ref library vendor description; cited from earlier work.
The test system of the next data set is CDK4/cyclin D1. The arrangement: method as in library vendor description. To be noted: ref library vendor description; cited from earlier work.
The next data set concerns CDK6/cyclin D2. The arrangement: method as in library vendor description. To be noted: ref library vendor description; cited from earlier work.
For a further data set, the system named is VEGFR2. The arrangement: method as in library vendor description. To be noted: ref library vendor description; cited from earlier work.
The next data set deals with FGFR1. The arrangement: method as in library vendor description. Conditions: ref library vendor description; cited from earlier work.
For another data set, the system named is VEGFR1. Set-up: method as in library vendor description. Conditions: ref library vendor description; cited from earlier work.
The next data set has as its system Flk1. The arrangement: method as in library vendor description. To be noted: ref library vendor description; cited from earlier work.
The next data set relates to survivin. Set-up: method as in library vendor description. Conditions: ref library vendor description; cited from earlier work.

Counter-ions that a name gives are not always drawn.

This is an account of results in paper PMC7216583 (Parasites & Vectors, 2020).

In general, Ki refers to the dissociation constant of the complex between target and ligand, obtained from inhibition or displacement. One may read the IC50 as the concentration that gives 50% inhibition. The term viability denotes a read-out of living cells in per cent, often relative to untreated cells. A low value points to more harm to the cells. As a reminder, the EC50 is the concentration at which the effect is half-maximal.

Take `CC(C)c1ccccc1Cc1cc(C(=O)Nc2ccc(S(=O)(=O)c3ccccc3C(C)(C)C)cc2)c(O)c(O)c1O` [TW-37]: the figures for the inhibition constant (Ki) at Bcl-xL, at Bcl-2 and at Mcl-1 were 1110 nM, 290 nM and 260 nM, respectively. Further, the inhibition of growth at 5 µM in data set [1] is 58.9%.

On to `Cl.O=C(Nc1ccccc1-c1cn2c(CN3CCNCC3)csc2n1)c1cnc2ccccc2n1` [SRT1720], for which the “EC1.5 SIRT1 activation” value in the data set with SIRT1 is given as “SRT1720 is a selective SIRT1 activator with EC1.5 of 0.16 μM”. Further, the inhibition of growth at 5 µM in data set [1] was 18.3%.

Turning to `COc1cc2nccc(Oc3ccc(NC(=O)C4(C(=O)Nc5ccc(F)cc5)CC4)cc3)c2cc1OC` [XL-184 (Cabozantinib)], the “Host viability (%) mean” value in data set [2] was found to be 50.8%. In addition, the IC50 was 12 nM in the data set on Flt1; 6 nM in the data set on Flt4; […] in the data set with c-Kit; […] in the data set on Ret; […] in the data set on AXL. For the same compound, in data set [1], the inhibition of growth at 5 µM stood at 82.5%.

On to `Nc1nc(=O)c2c(CCc3ccc(C(=O)N[C@H](CCC(=O)O)C(=O)O)cc3)c[nH]c2[nH]1` [Pemetrexed (Alimta)], for which, in the data set “in vitro”, the viability is 84.6%. Also, at DHFR, the Ki was 7.2 nM.

`Cn1cc(-c2ccc3nnc(C(F)(F)c4ccc5ncccc5c4)n3n2)cn1` [JNJ-38877605] yielded a viability at 72 h in “in vitro” (Host viability (%) mean) of 77.5%. Further, the half-inhibitory concentration (IC50) in the data set on c-Met was 4 nM. In data set [1], the inhibition of growth at 5 µM amounted to 84.3%.

As to `CC(C)(C)c1cc(C(C)(C)C)c(NC(=O)c2c[nH]c3ccccc3c2=O)cc1O` [Ivacaftor (VX-770)], the concentration giving a half-maximal response (EC50) with G551D-CFTR is 100 nM; in the data set on F508del-CFTR it was 25 nM. In addition, the inhibition of growth at 5 µM in data set [1] was found to be 0.6%.

As for `CO[C@H]1C[C@@H]2CC[C@@H](C)[C@@](O)(O2)C(=O)C(=O)N2CCCC[C@H]2C(=O)O[C@H]([C@@H](C)C[C@@H]2CC[C@@H](OCCO)[C@H](OC)C2)CC(=O)[C@H](C)/C=C(\C)[C@H](O)[C@@H](OC)C(=O)[C@H](C)C[C@H](C)/C=C/C=C/C=C/1C` [Everolimus (RAD001)], in the data set on FKBP12, the 50% inhibitory concentration (IC50) was 1.6 to 2.4 nM. Also, the inhibition of growth at 5 µM in data set [1] was 14.5%.

On to XL147, for which, in data set [3], the “Parasite inhibition (%) mean” value was 44.4%. In the data set on wild type p110α, the IC50 was 40 nM.

On to `CCN(CC)C(=O)c1ccc(C2=CC3(CCNCC3)Oc3cccc(O)c32)cc1` [ADL5859 HCl], for which the Ki at δ-opioid receptor is 0.8 nM. For the same compound, in data set [1], the inhibition of growth at 5 µM was determined as 1.1%.

On to `CC(C)(F)C[C@H](N[C@@H](c1ccc(-c2ccc(S(C)(=O)=O)cc2)cc1)C(F)(F)F)C(=O)NC1(C#N)CC1` [Odanacatib (MK 0822)], for which the IC50 in the data set on human cathepsin K was 0.2 nM; with rabbit cathepsin K it was 1 nM. The inhibition of growth at 5 µM in data set [1] is -9.7%.

Take `CCc1c(C(=O)C(N)=O)c2c(OCC(=O)O)cccc2n1Cc1ccccc1` [Varespladib (LY315920)]: the IC50 in data set [4] is 7 nM. In [1], the inhibition of growth at 5 µM was 36.6%.

For `C[C@]12CC[C@H](O)CC1=CC[C@@H]1[C@H]2CC[C@]2(C)C(c3cccnc3)=CC[C@@H]12` [Abiraterone (CB-7598)], the IC50 in the data set on CYP17 was 2 nM. Also, the inhibition of growth at 5 µM in [1] came to 11.2%.

For `CC(=O)c1c(C)c2cnc(Nc3ccc(N4CCNCC4)cn3)nc2n(C2CCCC2)c1=O` [PD 0332991 (Palbociclib) HCl], the IC50 is […] in the data set with CDK4/cyclin D1 and 16 nM in the data set with CDK6/cyclin D2. Moreover, in [1], the inhibition of growth at 5 µM was 0.1%.

With `Cc1cc2c(F)c(Oc3ncnn4cc(OC[C@@H](C)OC(=O)[C@H](C)N)c(C)c34)ccc2[nH]1` [Brivanib alaninate (BMS-582664)], the IC50 is 25 nM with VEGFR2, 148 nM in the data set with FGFR1, 380 nM with VEGFR1 and 89 nM in the data set on Flk1. Further, in data set [1], the inhibition of growth at 5 µM was found to be 7.1%.

For the compound `COCCn1c2c([n+](Cc3cnccn3)c1C)C(=O)c1ccccc1C2=O` [YM155], in the data set with survivin, the IC50 is 0.54 nM. Also, the inhibition of growth at 5 µM in data set [1] stood at 15.4%.
